Tests used:
[1] = test system: Stapphylococcus aureus (gram positive bacterium number 25923); test: Inactivation of S. aureus by 300 ns electric pulses combined with antibiotic (CFU plating); assay type: cell-based, Staphylococcus aureus; conditions: 30 kV/cm treatment + 20 μg/ml dose, in 10 min
[2] = test system: methicillin resistant Staphylococcus aureus (USA300-0114 strain); test: Inactivation of MRSA by 300 ns electric pulses and/or antibiotics (CFU plating); assay type: cell-based; conditions: 20 μg/mL + 30 kV/cm EPs
Description: Except for rifampicin, the five other antibiotics in these examples primarily target gram-positive bacteria and are largely ineffective or not used against gram-negative bacteria in a clinical setting.
A Blumlein pulsed generator consisting of two lines comprised of twelve 2000 pF capacitors connected by inductors produced 300 ns EPs with rise-times of 30 ns and fall-times of 35 ns at a repetition frequency of 1 Hz (12). The EPs were applied to a standard 2 mm gap electroporation cuvette (Dot Scientific R) filled with a solution containing the microorganisms. Used was a Luria broth of 0.5% salinity (5 grams of NaCl/Liter) for the solution to electrically match the resistance of the sample with the impedance of the pulse generator (11Ω) to prevent signal reflection. The voltage measurements were taken using a LeCroy PPE 20 kV high voltage probe with a 1000:1 attenuation recorded by a TeleDyne LeCroy® Waverunner 6 Zi Oscilloscope with a bandwidth of 4 GHZ.
The gram-negative strains included a carbapenem-resistant Escherichia coli (ATCC® BA-2452TM, New Delhi metallo-beta-lactamase NDM-1 positive.), Klebsiella pneumoniae (ATCC® BAA-2146TM NDM-I positive), and a gentamicin, streptomycin and sulfonamide resistant Pseudomonas aeruginosa (BEI Resources NR-31040). Assessed was the gram-positive strain of methicillin resistant Staphylococcus aureus (USA300-0114 strain), which is also resistant to erythromycin and tetracycline. Samples were cultured in Luria broth (LB Broth Lennox, powder microbial growth medium, SIGMA-ALDRICH®) by taking 25 mL of broth in a 50 mL sterile conical tube and incubating in a shaker for 16 h at 37° C. Samples were diluted 50% by adding 25 mL media to the incubated sample as we plated controls for each experiment and condition. […]
Removed was 20 μL from each cuvette and added to 180 μL of PBS in a 96-well dish in triplicate. […] These plates were then cultured overnight in an incubator at 37° C., and counted the next day.

[3] = test system: Stapphylococcus aureus (gram positive bacterium number 25923); test: Inactivation of S. aureus by 300 ns electric pulses combined with antibiotic (CFU plating); assay type: cell-based, Staphylococcus aureus
Protocol: Equipment. Used was a capacitor based Blumlein pulse generator with a spark gap switch to produce trapezoidal EPs of 300 ns duration at the peak with rise and fall times close to 50 ns. Multiple pulses were delivered at a frequency of 1 Hz.
The samples were treated in a standard electroporation cuvette (Dot Scientific) whose resistance must match the pulse generator's impedance to prevent pulse reflection. Utilizing Luria broth, containing 0.5% NaCl, in a cuvette with gap distances of 1 mm and 2 mm yielded the best electrical match (no reflections in the measured signal). Used were 2 mm cuvettes to ensure consistency between tests, and the applied voltage was measured across the cuvette using a LeCroy PPE 20 kV high voltage probe with a 1000:1 attenuation feeding into a TeleDyne LeCroy Waverunner 6 Zi Oscilloscope capable of measuring signals up to 4 GHz. Assuming a purely parallel plate geometry with minimal fringing gives an electric field E=V/d, where V is the peak voltage of the applied pulse and d is the gap distance.
Sample Preparation. These experiments assessed Stapphylococcus aureus (gram positive bacterium number 25923) from ATCC and Esherichia coli (gram negative bacterium number 25922) inoculated in luria broth (LB Broth Lennox, powder microbial growth medium. SIGMA-ALDRICH) by taking 8 mL of broth in a 50 mL sterile conical tube and incubating in a shaker for 20 h at 37° C. The sample was then diluted with fresh Luria broth until attaining an optical density of 0.25 for 100 μL on a photospectrometer (Molecular Devices) for a wavelength of 562 nm as measured in a 96-well plate. The optical density, which varies with growth or tube volume, was determined experimentally and set between 1×10^8 and 1.5×10^8 colony forming units (CFUs)/mL for the samples to be pulsed. These samples were then plated at dilutions between 10-6 and 100 (no dilution) depending on the effectiveness of the pulse treatments.
Electric Pulse Treatment Protocol. […] Although no consensus exists on a universal scaling law for applied EP “dose,” we fixed the energy density
[formula] • where N is the number of pulses and τ is the pulse duration. Fixing U for E=40, 30, and 20 kV/cm gave N=250, 445, and 1000 pulses, respectively. Cultures were plated as described below.
Cuvettes were filled with 365 μL of sample (sufficient to just cover the electrodes) and then 250 μL of molecular biology grade mineral oil was placed on top. Keeping the samples on ice upon achieving the required dilution further reduced experimental variability by slowing biological processes, such as fission This facilitated the assessment of the inactivation efficiency of EPs, drugs, and combined treatments.
Tests used the clinically relevant, bactericidal drug tobramycin, which targets the 30S and 50S ribosome complex and has a clinical dose from 4 to 5 μg/mL and rifampicin, which inhibits bacterial […]. Added were 0.2, 2, and 20 μg/mL of each drug to the initial bacterial dilutions prior to pulsing. Samples were immediately placed on ice to minimize cell division and reduce variability. These aliquots were also used to plate individual unpulsed controls for each drug concentration.
Plating. Plating was done on standard disposable tissue culture Petri dishes from VWR (15 cm diameter, 10 mm height) and covered with 10 mL of agar in luria broth (Agar, microbiology tested powder, SIGMA-ALDRICH), which was prepared by adding 20 g of LB lennox (SIGMA-ALDRICH) and 15 g/L of agar to water and then autoclaved.
Plated were samples at dilutions of 10^−6 and 10^−3 for low and high electric field treatments, respectively, and at 10^−6 and 10^−5 for controls All samples containing 100 μL of pulsed or diluted cultures were plated on LB agar plates and counted after overnight incubation at 37° C. […]

Structure (SMILES): CO[C@H]1/C=C/O[C@@]2(C)Oc3c(C)c(O)c4c(O)c(c(/C=N/N5CCN(C)CC5)c(O)c4c3C2=O)NC(=O)/C(C)=C\C=C\[C@H](C)[C@H](O)[C@@H](C)[C@@H](O)[C@@H](C)[C@H](OC(C)=O)[C@@H]1C [rifampicin]
- additional log-reduction of S. aureus [1]: 1.5 log
- synergy (synergistic inactivation), MRSA [2]: approximately 1.5 log
- log-reduction of S. aureus ([3]; 20 kV/cm EPs + 0.2 μg/mL): 1 log
- log-reduction of S. aureus ([3]; 20 kV/cm EPs + 2 μg/mL): 1 log
- log-reduction of S. aureus ([3]; 20 kV/cm EPs + 20 μg/mL): 1 log

Source: patent US20250195660A1, “INACTIVATING BACTERIA WITH ELECTRIC PULSES AND ANTIBIOTICS” (Purdue Research Foundation, priority 2018, published 2025)
